Where two headings read alike, the source gives them in different places.
Experiments:
[1] = system: platelet aggregation (PAF); assay: Inhibitory action on PAF-induced rabbit platelet aggregation; type: cell-based; conditions: Oryctolagus cuniculus, read-out: inhibitory percentage (platelet aggregation)
In short: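 Male rabbit citrated PRP, adjusted with PPP to about 500,000 platelets/μl, was stirred 2 min at 37 °C, then with test sample for 2 min before PAF addition. Aggregation was followed by aggregometry as maximum percent light transmission.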

[2] = system: PAF-induced hypotension; assay: Inhibitory action on PAF-induced hypotension in rats; type: in vivo, rat (Sprague-Dawley); conditions: Rattus norvegicus, read-out: Inhibitory Rate (Lowering of Blood Pressure); for inhibition in vivo at 0.01 mg/kg / inhibition in vivo at 0.03 mg/kg / inhibition in vivo at 0.1 mg/kg: iv; for inhibition in vivo at 1 mg/kg / inhibition in vivo at 3 mg/kg / inhibition in vivo at 10 mg/kg: oral
In short: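 Male Sprague-Dawley rats of about 250 g had cannulas placed in the femoral artery, for blood pressure recording via a pressure transducer, and in the femoral vein, for drug dosing. The hypotensive response to intravenous PAF (1 μg/kg) was measured first. Test samples were then given intravenously or orally, and PAF was given again. Percent inhibition compares the PAF-induced pressure drop (Δ mmHg) after treatment with the drop before treatment.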

[3] = system: Reversed Passive Arthus reaction; assay: Reversed Passive Arthus reaction; type: in vivo, rat (Sprague-Dawley); conditions: oral, 6.25 mg/kg, one hour before antigen
Experimental: Under ether anesthesia, the hair of the back of Sprague-Dawley male rats (7-week old, about 250 g body weight) was cut, and 0.5 ml of a 5% solution of gum arabia of a test compound relative to 100 g of the body weight of the animals was orally administered (one hour before injection of antigen). An antigen, egg albumin dissolved in physiological saline (5 mg/kg) was administered through the tail vein. Immediately, 0.1 ml each of a rabbit anti-egg albumin serum (containing 6 mg protein antibody/ml) was administered intracutaneously at one spot each of left- and right-hand sides of the back of rats. Three hours later, 1 ml of physiological saline containing 1% of Evans blue was given intravenously, and 30 minutes later, the skin of the animals was excised, and the area (mm^2) of blue spots was measured. The results were compared with those of the control group, and the inhibitory ratio was determined.

CCC[n+]1cc(Br)cc(C(=O)N(CCOC(=O)NCCOC(=O)Nc2cccc3ccccc23)c2ccccc2)c1 [Production Example 10, 5-bromo-3-[N-[2-[2-(1-naphthylcarbamoyloxy)ethyl]carbamoyloxy]ethyl-N-phenyl]carbamoyl-1-propylpyridinium chloride]
inhibition at 3 µM ([1]; 3 × 10^-6 M): 100%
inhibition at 0.3 µM ([1]; 3 × 10^-7 M): 91%
inhibition in vivo at 0.01 mg/kg ([2]; 1 hr.): 65%
inhibition in vivo at 0.01 mg/kg ([2]; 2 hr.): 60%
inhibition in vivo at 0.01 mg/kg ([2]; 4 hr.): 53%
inhibition in vivo at 0.01 mg/kg ([2]; 6 hr.): 47%
inhibition in vivo at 0.01 mg/kg ([2]; 8 hr.): 36%
inhibition in vivo at 0.03 mg/kg ([2]; 1 hr.): 97%
inhibition in vivo at 0.03 mg/kg ([2]; 2 hr.): 84%
inhibition in vivo at 0.03 mg/kg ([2]; 4 hr.): 65%
inhibition in vivo at 0.03 mg/kg ([2]; 6 hr.): 55%
inhibition in vivo at 0.03 mg/kg ([2]; 8 hr.): 47%
inhibition in vivo at 0.1 mg/kg ([2]; 1 hr.): 100%
inhibition in vivo at 0.1 mg/kg ([2]; 2 hr.): 94%
inhibition in vivo at 0.1 mg/kg ([2]; 4 hr.): 89%
inhibition in vivo at 0.1 mg/kg ([2]; 6 hr.): 81%
inhibition in vivo at 0.1 mg/kg ([2]; 8 hr.): 76%
inhibition in vivo at 0.01 mg/kg ([2]; 5 min, i.v., 5 min.): 79%
inhibition in vivo at 0.03 mg/kg ([2]; 5 min, i.v., 5 min.): 100%
inhibition in vivo at 0.1 mg/kg ([2]; 5 min, i.v., 5 min.): 100%
inhibition in vivo at 1 mg/kg ([2]; 1 hr.): 33%
inhibition in vivo at 1 mg/kg ([2]; 2 hr.): 51%
inhibition in vivo at 1 mg/kg ([2]; 4 hr.): 56%
inhibition in vivo at 1 mg/kg ([2]; 6 hr.): 59%
inhibition in vivo at 1 mg/kg ([2]; 8 hr.): 47%
inhibition in vivo at 3 mg/kg ([2]; 1 hr.): 79%
inhibition in vivo at 3 mg/kg ([2]; 2 hr.): 83%
inhibition in vivo at 3 mg/kg ([2]; 4 hr.): 87%
inhibition in vivo at 3 mg/kg ([2]; 6 hr.): 83%
inhibition in vivo at 3 mg/kg ([2]; 8 hr.): 81%
inhibition in vivo at 10 mg/kg ([2]; 1 hr.): 96%
inhibition in vivo at 10 mg/kg ([2]; 2 hr.): 96%
inhibition in vivo at 10 mg/kg ([2]; 4 hr.): 96%
inhibition in vivo at 10 mg/kg ([2]; 6 hr.): 93%
inhibition in vivo at 10 mg/kg ([2]; 8 hr.): 90%
preventive ratio [3]: 57%

— US4962113A, “Pyridinium derivatives, their production and use” (Takeda Chemical Industries, Ltd, priority 1987, dated 1990)
